{
  "source": "paper PMC4368859",
  "about": "(International Journal of Neuropsychopharmacology, 2014)",
  "key": {"[1]": {"system": "[^3H]-cocaine uptake in hCMEC/D3 cells", "assay_type": "cell-based, human"}, "[2]": {"system": "cocaine transporter in hCMEC/D3 cells", "assay": "trans-stimulation of [^3H]-cocaine exit from hCMEC/D3 cells", "conditions": "10 µM unlabeled compound in KH buffer after 5 minutes loading; vs control"}, "OCTs": {"system": "OCTs", "assay": "MPP+ transport in hCMEC/D3 cells", "assay_type": "cell-based, human", "conditions": "TEA 2mM, data not shown"}, "[3]": {"assay": "pKa and ionised/neutral fraction of the drug as a function of pH", "assay_type": "physicochemical"}, "hCMEC/D3 cells": {"system": "hCMEC/D3 cells", "assay": "cocaine uptake in hCMEC/D3 cells", "assay_type": "in vitro ADME, human"}, "mouse luminal BBB": {"system": "mouse luminal BBB", "assay": "cocaine brain transport by in situ mouse carotid perfusion", "assay_type": "in vivo", "conditions": "for Brain transport (K in): 9nM; for decrease in [^3H]-cocaine transport by unlabeled cocaine: unlabeled cocaine 10mM, mouse BBB"}, "[4]": {"conditions": "in water; ref Lu et al., 2007; cited from earlier work"}, "[5]": {"conditions": "ref Gatley et al., 1994; Chow et al., 2001; cited from earlier work"}, "[6]": {"conditions": "in vivo, concentrations less than K m"}},
  "note": "Values joined by “and” are separate entries in the source; they are usually repeats but may differ in a detail not shown here. Equal values may be shown once.",
  "data": [
    {"compound": "Ecgonine", "values": [
      {"measurement": "Relative uptake of [^3H]-cocaine", "setting": "[1]", "value": "103.9±8.7% and 93.2±2.5% and 75.3±5.0 %"}
    ]},
    {"compound": "COc1ccc2c3c1O[C@H]1[C@@H](O)C=C[C@H]4[C@@H](C2)N(C)CC[C@@]341", "note": "[Codeine]", "values": [
      {"measurement": "Relative uptake of [^3H]-cocaine", "setting": "[1]", "value": "63.4±5.0", "unit": "%"}
    ]},
    {"compound": "COc1ccc(CCN(C)CCCC(C#N)(c2ccc(OC)c(OC)c2)C(C)C)cc1OC", "note": "(stereo not drawn) [Verapamil]", "values": [
      {"measurement": "Relative uptake of [^3H]-cocaine", "setting": "[1]", "value": "3.7±0.2", "unit": "%"}
    ]},
    {"compound": "CCCC(C(=O)c1ccc2c(c1)OCO2)N1CCCC1", "note": "(stereo not drawn) [MDPV, 3,4-methylenedioxypyrovalerone]", "values": [
      {"measurement": "trans-stimulation of [^3H]-cocaine exit (trans-efflux zero)", "setting": "[2]", "value": "strongly stimulated"},
      {"measurement": "Relative uptake of [^3H]-cocaine", "setting": "[1]", "value": "18.1±0.4", "unit": "%"}
    ]},
    {"compound": "CC[N+](CC)(CC)CC", "note": "[TEA, tetraethylammonium]", "values": [
      {"measurement": "Relative uptake of [^3H]-cocaine", "setting": "[1]", "value": "120.6±9.8", "unit": "%"},
      {"measurement": "effect on MPP^+ transport", "setting": "OCTs", "value": "significantly inhibited"}
    ]},
    {"compound": "CN1CCC[C@H]1c1cccnc1", "note": "[Nicotine]", "values": [
      {"measurement": "trans-stimulation of [^3H]-cocaine exit (trans-efflux zero)", "setting": "[2]", "value": "strongly stimulated"}
    ]},
    {"compound": "COC(=O)[C@H]1[C@@H](OC(=O)c2ccccc2)C[C@@H]2CC[C@H]1N2C", "note": "[cocaine, (−)-Cocaine]", "values": [
      {"measurement": "positively charged fraction", "setting": "[3]; pH 7.4", "value": 94, "unit": "%"},
      {"measurement": "uncharged fraction", "setting": "[3]; pH 7.4", "value": 6, "unit": "%"},
      {"measurement": "neutral fraction", "setting": "[3]; pHe 5.40", "value": 0.06, "unit": "%"},
      {"measurement": "cationic form", "setting": "[3]; pHe 5.40 or 6.40", "value": "> 99.4", "unit": "%"},
      {"measurement": "neutral fraction", "setting": "[3]; pHe 6.40", "value": 0.6, "unit": "%"},
      {"measurement": "neutral fraction", "setting": "[3]; pHe 7.40", "value": 5.9, "unit": "%"},
      {"measurement": "K m of carrier-mediated uptake", "setting": "hCMEC/D3 cells; KH buffer pH 7.40, 37°C, 5 minutes, 0.05–10mM", "value": "123 ± 23", "unit": "µM"},
      {"measurement": "increase in uptake after NH4Cl prepulse (acidification)", "setting": "hCMEC/D3 cells; NH4Cl 30mM prepulse", "value": 1.85, "unit": "fold"},
      {"measurement": "effect of NH4Cl pulse (alkalinization) on uptake", "setting": "hCMEC/D3 cells; NH4Cl 30mM, pHe 7.40", "value": "significantly decreased"},
      {"measurement": "K passive (passive diffusion)", "setting": "hCMEC/D3 cells; pH 7.40", "value": "1.09 ± 0.09", "unit": "µL/min/mg"},
      {"measurement": "increase in uptake vs pHe 5.40", "setting": "hCMEC/D3 cells; pHe 6.40", "value": 2.5, "unit": "fold"},
      {"measurement": "increase in uptake vs pHe 5.40", "setting": "hCMEC/D3 cells; pHe 7.40", "value": 4.6, "unit": "fold"},
      {"measurement": "transport in NMDG-buffer relative to KH buffer control", "setting": "hCMEC/D3 cells; sodium replaced, pHe 7.40, 5 minutes, control 100.0±9.0%", "value": "97.0±9.7", "unit": "%"},
      {"measurement": "Brain transport (K in)", "setting": "mouse luminal BBB; C57Bl/6 mice, 60 seconds, Krebs-carbonate pH 7.40", "value": "19 ± 2", "unit": "µL/s/g"},
      {"measurement": "Brain transport (K in)", "setting": "mouse luminal BBB; DBA mice, 60 seconds, Krebs-carbonate pH 7.40", "value": "21 ± 2", "unit": "µL/s/g"},
      {"measurement": "Brain transport (K in)", "setting": "mouse luminal BBB; Fvb [Oct1,Oct2(−/−)] mice, 60 seconds", "value": "19 ± 2", "unit": "µL/s/g"},
      {"measurement": "Brain transport (K in)", "setting": "mouse luminal BBB; Fvb wild-type mice, 60 seconds, Krebs-carbonate pH 7.40", "value": "20 ± 2", "unit": "µL/s/g"},
      {"measurement": "Brain transport (K in)", "setting": "mouse luminal BBB; Swiss mice, 60 seconds, Krebs-carbonate pH 7.40", "value": "20 ± 2", "unit": "µL/s/g"},
      {"measurement": "K passive (passive diffusion)", "setting": "mouse luminal BBB; Swiss mice, pHe 7.40", "value": "4.5±1.0 µL/sec/g and ~ 4.5 µL/sec/g"},
      {"measurement": "apparent K m of carrier-mediated brain flux", "setting": "mouse luminal BBB; Swiss mice, pHe 7.40", "value": "4500 ± 1800", "unit": "µM"},
      {"measurement": "V max of carrier-mediated brain flux", "setting": "mouse luminal BBB; Swiss mice, pHe 7.40, per g of brain", "value": "127.2 ± 34.5", "unit": "nmol/s/g"},
      {"measurement": "total brain extraction", "setting": "mouse luminal BBB; compared with the vascular flow marker diazepam", "value": "about 47%"},
      {"measurement": "concentration at which passive diffusion and carrier-mediated flux are equal", "setting": "mouse luminal BBB; from Equation 7", "value": "around 24 mM"},
      {"measurement": "carrier-mediated influx relative to passive diffusion", "setting": "mouse luminal BBB; [6]", "value": 3.4, "unit": "times"},
      {"measurement": "carrier-mediated transport rate", "setting": "mouse luminal BBB; [6]", "value": "~ 15.5 µL/sec/g"},
      {"measurement": "increase in brain transport vs pHe 5.40", "setting": "mouse luminal BBB; mice, 60 seconds, pHe 6.40", "value": 4.7, "unit": "fold"},
      {"measurement": "increase in brain transport vs pHe 5.40", "setting": "mouse luminal BBB; mice, 60 seconds, pHe 7.40", "value": 16.9, "unit": "fold"},
      {"measurement": "reduction in brain transport by NH4Cl pulse", "setting": "mouse luminal BBB; mice, NH4Cl 30mM, pHe 7.40, 60 seconds", "value": 1.8, "unit": "fold"},
      {"measurement": "decrease in brain transport with HEPES-buffer vs Krebs-carbonate buffer", "setting": "mouse luminal BBB; mice, carbonate-free HEPES buffer", "value": 1.8, "unit": "fold"},
      {"measurement": "increase in K in with mannitol perfusion buffer vs Krebs-carbonate", "setting": "mouse luminal BBB; mice, sodium-free and chloride-free buffer", "value": 1.35, "unit": "fold"},
      {"measurement": "effect of lithium (Na+-free) buffer on brain transport", "setting": "mouse luminal BBB; mice, vs regular Krebs-carbonate buffer", "value": "no significant change"},
      {"measurement": "net brain transport rate (K in) under unsaturated conditions", "setting": "mouse luminal BBB; pharmacological concentration range", "value": "about 20 µL/sec/g"},
      {"measurement": "decrease in [^3H]-cocaine transport by unlabeled cocaine", "setting": "mouse luminal BBB; pHe 5.40", "value": 1.8, "unit": "fold"},
      {"measurement": "decrease in [^3H]-cocaine transport by unlabeled cocaine", "setting": "mouse luminal BBB; pHe 6.40", "value": 2.0, "unit": "fold"},
      {"measurement": "decrease in [^3H]-cocaine transport by unlabeled cocaine", "setting": "mouse luminal BBB; pHe 7.40", "value": 1.9, "unit": "fold"},
      {"measurement": "basic pK a", "setting": "[4]", "value": 8.6}
    ]},
    {"compound": "C=CCN1CC[C@]23c4c5ccc(O)c4O[C@H]2C(=O)CC[C@@]3(O)[C@H]1C5", "note": "[Naloxone]", "values": [
      {"measurement": "Relative uptake of [^3H]-cocaine", "setting": "[1]", "value": "28.3±0.9", "unit": "%"}
    ]},
    {"compound": "CN1[C@H]2CC[C@@H]1[C@@H](C(=O)O)[C@@H](OC(=O)c1ccccc1)C2", "note": "[Benzoylecgonine]", "values": [
      {"measurement": "brain uptake", "setting": "[5]", "value": "no significant brain uptake"},
      {"measurement": "trans-stimulation of [^3H]-cocaine exit (trans-efflux zero)", "setting": "[2]", "value": "lack of a trans-stimulation effect"},
      {"measurement": "Relative uptake of [^3H]-cocaine", "setting": "[1]", "value": "104.1±3.0% and 94.2±14.9% and 72.0±11.4 %"}
    ]}
  ]
}
